Consider eleven molecules from patent publication US5851994A, “Compositions that inhibit wound contraction and methods of using same” (La Jolla Cancer Research Foundation, priority 1995, dated 1998).

The test system of one data set is CTT-18 cells. Put plainly: Peptide collagen gel contraction assay. To be noted: FIG. 4, gel area over time. It counts as cell-based, human. Here is the method: CTT-18 cells, which are a normal human colon fibroblast cell line available from ATCC (#1459-CRL), were used in the gel contraction assays. Subconfluent CTT-18 cells were harvested by trypsinization, neutralized with soybean trypsin inhibitor, then washed several times with serum-free Dulbecco's modified Eagle's medium (DMEM). The cells were resuspended at 5×10^6 cells/ml in DMEM.
The collagen solution was prepared by combining the following reagents in the stated order: 1× DMEM, 1× insulin/transferrin/selenium (ITS; Collaborative Research; Bedford Mass.), 25 mM HEPES, 2.5 mg/ml rat tail collagen I (Collaborative Research). The solution was adjusted to pH 7.4 using 2M NaOH and deionized water was added to the appropriate final volume. Finally, 5×10^4 cells/ml (DMEM) were added to the solution and 0.6 ml of the combined solution was added to each well of a 24 well plate. The solution was allowed to gel for 1 hr at 37° C.
Peptides were diluted to 4.5 mM in 1× DMEM/1× ITS/1× penicillin/1× streptomycin and the solution was adjusted to pH 7.4. Each gel was overlayed with 0.6 ml peptide solution and the gel periphery was rimmed to release the gel from the edge of the well. The gels were incubated at 37° C. and each gel area was monitored daily by planimetry using a computerized planimetry program (Digitize, Macintosh).
In addition to determining the area of a gel, a replicate gel for each experimental condition was examined each day for cell viability. To determine cell viability, the overlay media was removed and replaced with 4 mg/ml collagenase type 2 (Worthington Biochemical; Freehold N.J.) in collagen digestion buffer (0.13M NaCl, 0.01M Ca acetate, 0.02M HEPES, pH 7.2). The sample was incubated at 37° C. until digestion was complete (about 1 hr). The solution was centrifuged at 3000 rpm in a microcentrifuge for 5 min and the pellet resuspended in trypsin/EDTA and incubated for 20 min at 37° C. The solution again was centrifuged, the pellet resuspended in 40 μl 0.4% trypan blue and the viable cells were counted in a hemocytometer. In general, the variations in cell viability were slight, and it was unnecessary to correct the gel contraction results due to significant differences in cell viability.

A further data set deals with collagen gels. The note with it: Grinnell et al. 1989; U.S. Pat. No. 4,957,902; cited from earlier work.
The subject of data set [1] is NIH 3T3 mouse fibroblasts. In words: Decorin collagen gel contraction assay, NIH 3T3 cells. The note with it: for collagen gel contraction versus control level: 10 ng/ml PDGF, 20 ng/ml acidic FGF, without decorin. The class given is cell-based. Here is the method:
NIH 3T3 mouse fibroblasts (ATCC #CRL 1658) and WI38 human fibroblasts (ATCC #CL75) were used in these assays and passaged in culture as prescribed.
Cells were collected by washing the cells with sterile PBS, then incubating the cells for 5 min at 37° C. with trypsin-EDTA (200 mg versene and 500 mg trypsin/liter Hank's balanced salt solution; Gibco/BRL; Gaithersburg MD). Following incubation, cells were removed by aspiration with a pipet and DMEM supplemented with 10% FBS (BioWhittaker; Walkersville Md.) was added to neutralize the trypsin. Cells were centrifuged for 8 min at 1200 rpm, decanted, washed 3× with serum-free DMEM and resuspended in serum-free DMEM to the following concentrations: NIH 3T3 cells, 3.0×10^6 cells/ml; WI38 cells, 1.0×10^6 cell/ml.
The following reagents were added on ice to generate a total of 24 gels: 3.6 ml 5× DMEM (Gibco/BRL), 1.0 ml 1M HEPES (Sigma), 0.74 ml 0.5M NaOH, 2.0 ml cell suspension in serum-free DMEM, 7.6 ml rat tail collagen I (3.81 mg/ml; Collaborative Research). The collagen mixture was quickly added to a mixture of 4.8 ml decorin and water to yield the appropriate decorin concentration and 0.7 ml was added to each well of a 24 well microtiter dish that previously had been coated with 2% bovine serum albumin in PBS. The gels were allowed to solidify for 1 hr at 37° C. in a humidified incubator, then were released from the edges of the well by tapping or by rimming with a pipet tip.
Gels were transferred aseptically using forceps from the microtiter plate into a Nunc six well plate. Three gels were transferred into each 33 mm well. Prior to transfer, each well received 1 ng/ml TGFβ (from porcine platelets; R&D Systems; Minneapolis Minn.). […] The plates were rocked in a humidified incubator at 37° C. and 7% CO2 for the length of the experiment. The area of the gels was measured daily using photographs from an image analyzer and planimetry.

Data set [2] concerns collagen. Put plainly: Effect on collagen fibril structure.
Data set [3] deals with collagen. In words: Binding to collagen.

In the case of `N=C(N)NCCC[C@H](N)C(=O)O` [mono-arginine, arginine], the “inhibition of gel contraction” value with CTT-18 cells was “did not inhibit gel contraction”; in the data set on CTT-18 cells (listed as Arg 1) it was “do not inhibit collagen gel contraction”.

On to GRGESP, for which the “effect on contraction of collagen gels” value in the data set on collagen gels is reported as “inhibited contraction of collagen gels”.

PDGF: in data set [1] (1 ng/ml TGFβ, FIG. 6), the “collagen gel contraction versus control level” value is “increased the amount of collagen gel contraction above the control level”.

With “TGFβ: growth factor from porcine platelets (R&D Systems) that stimulates contraction”, the “collagen gel contraction versus control level” value in data set [1] (1 ng/ml TGFβ, FIG. 6) is “increased the amount of collagen gel contraction above the control level”. Besides, the “contraction of a collagen/NIH 3T3 gel” value in data set [1] (1.0 ng/ml TGFβ, 24 hr, 0 μg/ml decorin) was “approximately 60%”.

Regarding “acidic FGF: acidic fibroblast-derived growth factor (R & D Systems)”, the “collagen gel contraction versus control level” value in data set [1] (1 ng/ml TGFβ, FIG. 6) is on record as “increased the amount of collagen gel contraction above the control level”.

Regarding di-arginine, the “inhibition of gel contraction” value was “did not inhibit gel contraction” with CTT-18 cells and “do not inhibit collagen gel contraction” with CTT-18 cells (listed as Arg 2).

tri-arginine: the “inhibition of gel contraction” value in the data set with CTT-18 cells was “did not inhibit gel contraction”; in the data set with CTT-18 cells (listed as Arg 3) it was “do not inhibit collagen gel contraction”.

B1: decorin: proteoglycan produced by fibroblasts, core protein about 40 kDa; produced in decorin-expressing CHO cells (protein, UniProt P07585 31-359, looked up)
Decorin: DEASGIGPEVPDDRDFEPSLGPVCPFRCQCHLRVVQCSDLGLDKVPKDLPPDTTLLDLQNNKITEIKDGDFKNLKNLHALILVNNKISKVSPGAFTPLVKLERLYLSKNQLKELPEKMPKTLQELRAHENEITKVRKVTFNGLNQMIVIELGTNPLKSSGIENGAFQGMKKLSYIRIADTNITSIPQGLPPSLTELHLDGNKISRVDAASLKGLNNLAKLGLSFNSISAVDNGSLANTPHLRELHLDNNKLTRVPGGLAEHKYIQVVYLHNNNISVVGSSDFCPPGHNTKKASYSGVSLFSNPVQYWEIQPSTFRCVYVRSAIQLGNYK
B1: in data set [1] (200 μg decorin per ml gel, 1 ng/ml TGFβ, 10 ng/ml PDGF or 20 ng/ml acidic FGF, FIG. 6), the “gel contraction in the presence of growth factors” value is reported as “reduced or inhibited the level of gel contraction”. Besides, the “gel contraction at 200 μg per ml decorin” value in data set [1] (collagen/NIH 3T3 gel, 1 ng/ml TGFβ, 24 hr) was “no gel contraction was observed”. The “gel contraction with increasing concentrations of decorin in the gel” value in data set [1] (collagen/NIH 3T3 gel, 1 ng/ml TGFβ, 24 hr, FIG. 5) is “reduced or inhibited gel contraction”.

B2: Decorin that had been reduced and alkylated: decorin incubated with dithiothreitol, then iodoacetamide (protein, UniProt P07585 31-359, looked up)
Decorin: B1 Decorin
modifications: reduced and alkylated
notes: decorin incubated with dithiothreitol, then iodoacetamide
B2: the “gel contraction” value in data set [1] (reduced and alkylated form, data not shown) is “inhibited gel contraction”.

B3: denatured decorin: denatured decorin, compared with native/intact decorin (protein, UniProt P07585 31-359, looked up)
Decorin: B1 Decorin
modifications: denatured
B3: in the data set on collagen [2], the “effect on fibril structure” value is on record as “does not affect fibril structure”. Further, the collagen binding entry in the data set on collagen [3] is “binds collagen to the same extent as nondenatured decorin”. Further, the “inhibition of gel contraction compared with intact decorin” value in data set [1] (cells not given) is recorded as “retains some ability to inhibit gel contraction”.

B4: biglycan: proteoglycan with core protein sequence closely related to decorin (protein, UniProt P21810 38-368, looked up)
Biglycan: DEEASGADTSGVLDPDSVTPTYSAMCPFGCHCHLRVVQCSDLGLKSVPKEISPDTTLLDLQNNDISELRKDDFKGLQHLYALVLVNNKISKIHEKAFSPLRKLQKLYISKNHLVEIPPNLPSSLVELRIHDNRIRKVPKGVFSGLRNMNCIEMGGNPLENSGFEPGAFDGLKLNYLRISEAKLTGIPKDLPETLNELHLDHNKIQAIELEDLLRYSKLYRLGLGHNQIRMIENGSLSFLPTLRELHLDNNKLARVPSGLPDLKLLQVVYLHSNNITKVGVNDFCPMGFGVKRAYYNGISLFNNPVPYWEVQPATFRCVTDRLAIQFGNYKK
On to B4, for which the collagen binding result with collagen [3] is recorded as “can bind to collagen in the gel contraction assays”.
